In ChEMBL document CHEMBL3785048, “Effects of polar receptor agonists designed for the periphery on ATP-induced Ca2+release from keratinocytes” (Medchemcomm, 2016):
The source made the active and inactive calls. No cut-off for these calls is given here.

Experiments:
[1] = biological target: T1, Kappa-type opioid receptor (Homo sapiens, UniProt P41145); test: Agonist activity at kappa opioid receptor in ATP stimulated human HaCaT cells assessed as reduction in intracellular Ca2+ release at 1 uM after 45 mins by FURA-2AM dye based luminescence spectrophotometry method; format: functional, cell-based
T1 sequence (P41145 whole entry): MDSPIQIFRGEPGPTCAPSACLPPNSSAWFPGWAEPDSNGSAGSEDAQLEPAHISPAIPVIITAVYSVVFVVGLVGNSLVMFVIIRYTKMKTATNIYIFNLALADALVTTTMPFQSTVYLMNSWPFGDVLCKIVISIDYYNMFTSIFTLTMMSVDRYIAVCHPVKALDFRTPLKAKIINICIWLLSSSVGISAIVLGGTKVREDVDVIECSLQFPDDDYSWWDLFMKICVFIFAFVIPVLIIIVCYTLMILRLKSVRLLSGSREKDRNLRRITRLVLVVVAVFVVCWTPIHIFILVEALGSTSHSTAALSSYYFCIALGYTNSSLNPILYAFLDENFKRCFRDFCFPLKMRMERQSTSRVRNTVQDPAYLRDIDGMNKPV

[2] = Distribution coefficient, logD between n-octonol and aqueous MOPS buffer at pH 7.4 by LC-MS analysis detection based shake flask method; format: physicochemical; settings: n-octanol/aqueous MOPS buffer
[3] = Distribution coefficient, logD between n-octonol and aqueous PBS buffer at pH 5.4 by LC-MS analysis detection based shake flask method; format: physicochemical; settings: n-octanol/aqueous PBS buffer
[4] = species on record: Rattus norvegicus; test: Displacement of [3H]DTG from rat sigma2 receptor at 10 uM after 120 mins by liquid scintillation counting method
[5] = species on record: Sus scrofa; test: Displacement of [3H]MK-801 from pig N-methyl D-aspartate receptor phencyclidine binding site at 10 uM after 150 min by liquid scintillation counting method
[6] = system: CHO-K1; test: Selectivity index, ratio of Ki for human mu opioid receptor expressed in CHO-K1 cells to Ki for human kappa opioid receptor expressed on HEK-293 cells; format: cell-based
[7] = system: CHO-K1; test: Selectivity index, ratio of Ki for human mu opioid receptor expressed in CHO-K1 cells to guinea pig kappa opioid receptor; format: cell-based
[8] = system: CHO-K1; test: Selectivity index, ratio of Ki for human delta opioid receptor expressed in CHO-K1 cells to Ki for human kappa opioid receptor expressed on HEK-293 cells; format: cell-based
[9] = system: CHO-K1; test: Selectivity index, ratio of Ki for human delta opioid receptor expressed in CHO-K1 cells to guinea pig kappa opioid receptor; format: cell-based
[10] = biological target: T1, Kappa-type opioid receptor; test: Agonist activity at human kappa opioid receptor expressed in HEK-293 cells after 45 mins by [35S]GTP-gamma-S binding assay in presence of 10 uM of GDP relative to U-69,593; format: cell-based; settings: HEK293
[11] = biological target: Kappa-type opioid receptor (Cavia porcellus, UniProt P41144); test: Displacement of [3H]U-69,593 from kappa opioid receptor in guinea pig brain membarnes by liquid scintillation counting method
Sequence of Kappa-type opioid receptor (Cavia porcellus, UniProt P41144) (P41144 whole entry): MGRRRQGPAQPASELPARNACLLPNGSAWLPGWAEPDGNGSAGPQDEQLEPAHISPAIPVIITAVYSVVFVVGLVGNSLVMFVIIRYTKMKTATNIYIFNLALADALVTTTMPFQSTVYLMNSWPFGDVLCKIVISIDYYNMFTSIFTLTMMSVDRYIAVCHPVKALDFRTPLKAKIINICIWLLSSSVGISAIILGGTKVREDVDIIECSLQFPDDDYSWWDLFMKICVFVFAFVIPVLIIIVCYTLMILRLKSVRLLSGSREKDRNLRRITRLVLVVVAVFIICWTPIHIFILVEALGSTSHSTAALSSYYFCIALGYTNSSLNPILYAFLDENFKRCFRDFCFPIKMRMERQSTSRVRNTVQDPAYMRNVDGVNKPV

[12] = biological target: T1, Kappa-type opioid receptor; test: biochemical; format: cell-based, HEK293
Description: Displacement of [3H]Cl-977 from human kappa opioid receptor expressed on HEK-293 cells by liquid scintillation counting method

[13] = biological target: Mu-type opioid receptor (Homo sapiens, UniProt P35372); test: biochemical; format: cell-based, CHO-K1
Sequence of Mu-type opioid receptor (P35372 whole entry): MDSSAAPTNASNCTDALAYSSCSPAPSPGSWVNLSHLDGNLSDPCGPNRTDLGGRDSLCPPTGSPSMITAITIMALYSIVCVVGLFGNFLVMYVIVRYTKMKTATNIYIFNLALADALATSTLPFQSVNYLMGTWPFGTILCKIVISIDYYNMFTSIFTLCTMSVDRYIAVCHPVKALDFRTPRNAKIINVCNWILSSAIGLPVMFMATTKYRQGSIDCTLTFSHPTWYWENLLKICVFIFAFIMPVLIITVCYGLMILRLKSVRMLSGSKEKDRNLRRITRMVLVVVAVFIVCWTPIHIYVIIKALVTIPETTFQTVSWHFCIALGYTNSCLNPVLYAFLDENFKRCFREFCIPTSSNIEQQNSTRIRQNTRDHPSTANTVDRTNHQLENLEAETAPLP

[14] = biological target: Delta-type opioid receptor (Homo sapiens) (UniProt P41143); test: Displacement of [3H]deltrophine from human delta opioid receptor expressed in CHO-K1 cells at 10 uM after 150 mins by liquid scintillation counting method; format: cell-based
Sequence of Delta-type opioid receptor (Homo sapiens) (P41143 whole entry): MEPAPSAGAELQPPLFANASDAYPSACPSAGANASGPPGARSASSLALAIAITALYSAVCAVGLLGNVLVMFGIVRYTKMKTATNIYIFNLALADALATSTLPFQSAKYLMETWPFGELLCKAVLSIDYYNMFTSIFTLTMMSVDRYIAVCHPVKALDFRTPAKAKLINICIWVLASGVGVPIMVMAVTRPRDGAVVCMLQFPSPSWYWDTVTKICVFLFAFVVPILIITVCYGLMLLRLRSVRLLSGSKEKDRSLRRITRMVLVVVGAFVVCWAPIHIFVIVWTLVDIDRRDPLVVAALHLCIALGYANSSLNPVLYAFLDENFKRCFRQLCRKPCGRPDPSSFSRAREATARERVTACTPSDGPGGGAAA

[15] = biological target: Sigma non-opioid intracellular receptor 1 (Cavia porcellus) (UniProt Q60492); test: Displacement of [3H]-(+)-pentazocine from guinea pig Sigma1-receptor at 10 uM after 120 mins by liquid scintillation counting method
Sequence of Sigma non-opioid intracellular receptor 1 (Cavia porcellus) (Q60492 whole entry): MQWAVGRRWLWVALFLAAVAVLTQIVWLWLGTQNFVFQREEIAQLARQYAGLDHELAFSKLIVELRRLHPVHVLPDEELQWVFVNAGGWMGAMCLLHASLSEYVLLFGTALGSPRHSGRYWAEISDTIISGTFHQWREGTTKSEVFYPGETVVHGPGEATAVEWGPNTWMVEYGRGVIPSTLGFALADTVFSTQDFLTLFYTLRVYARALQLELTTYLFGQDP

[16] = biological target: T1, Kappa-type opioid receptor; test: Agonist activity at human kappa opioid receptor expressed in HEK-293 cells after 45 mins by [35S]GTP-gamma-S binding assay in presence of 10 uM of GDP; format: cell-based, HEK293

Row | SMILES | inhibition [1] | logD [2] | logD [3] | inhibition [4] | inhibition [5] | Ratio Ki [6] | Ratio Ki [7] | Ratio Ki [8] | Ratio Ki [9] | Intrinsic activity [10] | Ki [11] | Ki [12] | Ki [13] | inhibition [14] | inhibition [15] | EC50 [16]
1 | CN(C(=O)/C=C/c1ccoc1)[C@@H]1CC[C@@]2(O)[C@H]3Cc4ccc(O)c5c4[C@@]2(CCN3CC2CC2)[C@H]1O5 | 40% |  |  |  |  |  |  |  |  |  |  |  |  |  |  | 
2 | O=C(Cc1ccc(Cl)c(Cl)c1)N1CCNC2CCCC(N3CCC(O)C3)C21 (mixture of isomers) |  | 0.23 | -2.47 |  |  |  |  |  |  |  |  |  |  |  |  | 
3 | O=C(Cc1ccc(Cl)c(Cl)c1)N1CCN(Cc2cccnc2)C2CCCC(N3CCCC3)C21 (racemic) | Active | 1.1 | -0.45 | 1% | inactive | 100 | > 10000 | 100 | > 10000 | 100% | 0.13 nM | 22 nM | 2460 nM | 40% | 20% | 
4 | COC(=O)N1CCN(C(=O)Cc2ccc(Cl)c(Cl)c2)C2C(N3CCCC3)CCCC21 (stereo not drawn) |  | 1.29 | 0.39 |  |  |  |  |  |  |  |  |  |  |  |  | 
5 | O=C(Cc1ccc(Cl)c(Cl)c1)N1CCN(Cc2cccnc2)C2CCCC(N3CCC(O)C3)C21 (mixture of isomers) | Active | 1.26 | -0.39 | 23% | inactive | 100 | 1000 | 100 | 1000 | 100% |  | 31 nM | 3480 nM | 35% | 10% | 
6 | COC(=O)N1CCN(C(=O)Cc2ccc(Cl)c(Cl)c2)C2C(N3CCC(O)C3)CCCC21 (mixture of isomers) | Active | 1.31 | 0.04 |  |  |  |  |  |  |  |  |  |  |  |  | 79 nM
